How the values were obtained:
HT29 colon tumor [1] = experiment: Tumor PK/PD study in HT29 tumor-bearing mice (tumor volume, inhibitory Emax model); format: in vivo, mouse; settings: Emax fixed at 1
Procedure: (§1) The length and width of each tumor was recorded 2–3 times a week, and the corresponding tumor volume was estimated using the formula L × W ^2/2 = mm^3, where L and W refer to the larger and smaller perpendicular tumor dimensions, respectively. Animals found moribund or with tumors ≥4,000 mm^3, ulcerated, or sloughed off were euthanized prior to scheduled termination. […] Plasma was harvested, frozen on dry ice, and stored at −80 °C until assayed. Immediately following blood collection, animals were euthanized, and the tumors were excised, frozen in liquid nitrogen, and stored at −80 °C until assayed.
(§2) Inhibitory E max response PK/PD models based on the Gompertz equation [32] were developed for both tumor types to represent the rate of tumor growth as a function of tumor SN38 concentration. A schematic diagram of the PK/PD model is shown in Online Resource 1. […] The PD parameter values k gr (tumor intrinsic growth rate; day^−1), Limit (limit of tumor growth), and EC 50 (half-maximal effective inhibitory concentrations; μg/g) were optimized using Runge–Kutta 4 integration and the multiple-fit curve fitting module of Berkeley Madonna.

[2] = Pharmacokinetics across nonclinical species (mouse, rat, dog); settings: rats and dogs, after conventional irinotecan
Procedure: Blood samples were collected via a peripheral vein into blood collection tubes containing 1/20th the plasma volume of a dimethyl sulfoxide solution containing 50 mM phenylmethyl sulfonyl fluoride and 1 % acetic acid (v/v). Plasma was harvested by centrifugation at 2,100×g for 20 min at 4 °C. Plasma was further stabilized by addition of 1 % acetic acid and stored at −80 °C until assayed.
Tumor tissue samples were homogenized in a 9× volume of homogenization buffer (containing sodium fluoride, phenylmethyl sulfonyl fluoride, and sodium dodecyl sulfate) prior to extraction of analytes. SN38 from tumor homogenate was extracted using protein precipitation with acetonitrile and quantified by LC–MS/MS using SN38 calibration standards. LC–MS/MS used a Synergy Hydro, 3 µm, 50 × 2.0-mm column, operated at 50 °C, at a flow rate of 0.4 mL/min with a gradient consisting of 0.1 % formic acid in water and 0.1 % formic acid in acetonitrile, coupled to an API 4000 (Applied Biosystems). […] The predicted mouse and measured rat and dog concentration–time profiles were analyzed with noncompartmental methods within WinNonlin (Professional version 5.2; Pharsight Corporation, Mountain View, CA) to estimate customary PK parameters.

[3] = humans, cited from earlier work; for time post-dose at which concentrations fall below 0.1 ng/mL: following irinotecan infusion (350 mg/m2 every 21 days), reference not given
[4] = set-up: method as in PMID 1651156; settings: cited from earlier work
NCI-H460 lung tumor [5] = experiment: Tumor PK/PD study in NCI-H460 tumor-bearing mice (tumor volume, inhibitory Emax model); format: in vivo, mouse; settings: Emax fixed at 1
Procedure: as §1, §2

[6] = mice; no reference given; cited from earlier work
HT29 colon tumor [7] = experiment: Activity in HT29 colon tumor xenograft model; format: in vivo, mouse; settings: for Median TTE: endpoint 1,000 mm3; for Survivors not reaching tumor endpoint: endpoint 1,000 mm3 or Day 73; for Tumor regression, Complete / Tumor regression, Partial: HT29 colon tumor model, animals/group
Source text: (§3) Tumor volume was estimated as described above.
(§4) Studies were terminated on Days 59 (HT29), 61 (NCI-H460), 72 (MCF-7), 60 (A2780, q7dx3), 76 (A2780 qdx1), and 84 (NCI-N87).
(§5) Kaplan–Meier plots were constructed to show the percentage of animals remaining in the study to perform the logrank test. Median tumor growth curves show group median tumor volumes as a function of time. When an animal exited the study due to tumor size, the final tumor volume recorded for the animal was included with the data used to calculate the group median tumor volume at subsequent time points.

A2780 ovarian tumor = experiment: Activity in A2780 ovarian tumor xenograft model; format: in vivo, mouse
Source text: as §3, §4, §5

[8] = Plasma and tumor pharmacokinetics in tumor-bearing mice (HT29 and NCI-H460, model not distinguished); settings: after conventional irinotecan 40 mg/kg iv Days 0, 4, 8
Procedure: as §1

MCF-7 breast tumor = experiment: Activity in MCF-7 breast tumor xenograft model; format: in vivo, mouse
Source text: as §3, §4, §5

NCI-H460 lung tumor [9] = experiment: Activity in NCI-H460 lung tumor xenograft model; format: in vivo, mouse; settings: for Median TTE: endpoint 1,500 mm3; for Survivors not reaching tumor endpoint: endpoint 1,500 mm3 or Day 57; for Tumor regression, Complete / Tumor regression, Partial: NCI-H460 lung tumor model, animals/group
Source text: as §3, §4, §5

[10] = Tolerability in mouse xenograft studies (body weight, mortality); format: in vivo; settings: all doses, all xenograft models
Source text: as §3

NCI-N87 gastric tumor = experiment: Activity in NCI-N87 gastric tumor xenograft model; format: in vivo, mouse
Source text: as §3, §4, §5

[11] = A2780 ovarian tumor model, 100 mg/kg Q7dx3 iv, animals/group
[12] = MCF-7 breast tumor model, 40 mg/kg Q4dx3 iv, animals/group
[13] = NCI-N87 gastric tumor model, 60 mg/kg Q7dx3 iv, animals/group

CCc1c2c(nc3ccc(O)cc13)-c1cc3c(c(=O)n1C2)COC(=O)[C@]3(O)CC [SN38, 10-hydroxy-7-ethyl camptothecin]
EC50 (half-maximal effective inhibitory tumor SN38 concentration) (HT29 colon tumor [1]): 0.20 µg/g
time post-dose at which plasma SN38 was undetectable [2]: 24 h
t1/2 of SN38 ([3]; conventional irinotecan): 24 to 47 h
time post-dose at which concentrations fall below 0.1 ng/mL [3]: 5 to 7 days
cytotoxicity in vitro, potency compared with irinotecan [4]: 100- to 1,000 fold
EC50 (half-maximal effective inhibitory tumor SN38 concentration) (NCI-H460 lung tumor [5]): 1.2 µg/g

CCc1c2c(nc3ccc(OC(=O)N4CCC(N5CCCCC5)CC4)cc13)-c1cc3c(c(=O)n1C2)COC(=O)[C@]3(O)CC [Irinotecan]
single-dose LD10 [6]: ~ 120 mg/kg
TGD (HT29 colon tumor [7]; HT29, 40 mg/kg Q4dx3 iv): 10 days
Median TTE (HT29 colon tumor [7]; HT29, 40 mg/kg Q4dx3 iv): 26 days
Survivors not reaching tumor endpoint (HT29 colon tumor [7]; HT29, 40 mg/kg Q4dx3 iv): 0/10
TGD (HT29 colon tumor [7]; HT29, 90 mg/kg Q4dx3 iv): 11 days
Median TTE (HT29 colon tumor [7]; HT29, 90 mg/kg Q4dx3 iv): 27 days
Survivors not reaching tumor endpoint (HT29 colon tumor [7]; HT29, 90 mg/kg Q4dx3 iv): 0/10
regression responses (animals) (HT29 colon tumor [7]; HT29, Q4dx3): no tumor regression
Tumor regression, Complete (HT29 colon tumor [7]; 40 mg/kg Q4dx3 iv): 0/10
Tumor regression, Partial (HT29 colon tumor [7]; 40 mg/kg Q4dx3 iv): 0/10
Tumor regression, Complete (HT29 colon tumor [7]; 90 mg/kg Q4dx3 iv): 0/10
Tumor regression, Partial (HT29 colon tumor [7]; 90 mg/kg Q4dx3 iv): 0/10
time post-dose at which concentrations fall below 0.1 ng/mL [3]: 5 to 7 days
TGD (A2780 ovarian tumor; A2780, 100 mg/kg Q7dx3 iv): 15 days
Median TTE (A2780 ovarian tumor; A2780, 100 mg/kg Q7dx3 iv, endpoint 2,000 mm3): 29 days
Survivors not reaching tumor endpoint (A2780 ovarian tumor; A2780, 100 mg/kg Q7dx3 iv, endpoint 2,000 mm3 or Day 60): 0/10
Tumor regression, Complete (A2780 ovarian tumor; [11]): 0/10
Tumor regression, Partial (A2780 ovarian tumor; [11]): 0/10
plasma irinotecan AUC [8]: 1.2 µg·days/mL
tumor irinotecan AUC [8]: 4.2 µg·days/g
TGD (MCF-7 breast tumor; MCF-7, 40 mg/kg Q4dx3 iv): 22 days
Median TTE (MCF-7 breast tumor; MCF-7, 40 mg/kg Q4dx3 iv, endpoint 700 mm3): 59 days
Survivors not reaching tumor endpoint (MCF-7 breast tumor; MCF-7, 40 mg/kg Q4dx3 iv, endpoint 700 mm3 or Day 73): 2/10
regression responses / regression rate (animals) (MCF-7 breast tumor; MCF-7, Q4dx3): ≤ 30%
Tumor regression, Complete (MCF-7 breast tumor; [12]): 3/10
Tumor regression, Partial (MCF-7 breast tumor; [12]): 0/10
regression responses (animals) (NCI-H460 lung tumor [9]; H460, Q4dx3): no tumor regression
TGD (NCI-H460 lung tumor [9]; NCI-H460, 40 mg/kg Q4dx3 iv): 11 days
Median TTE (NCI-H460 lung tumor [9]; NCI-H460, 40 mg/kg Q4dx3 iv): 23 days
Survivors not reaching tumor endpoint (NCI-H460 lung tumor [9]; NCI-H460, 40 mg/kg Q4dx3 iv): 0/10
TGD (NCI-H460 lung tumor [9]; NCI-H460, 90 mg/kg Q4dx3 iv): 12 days
Median TTE (NCI-H460 lung tumor [9]; NCI-H460, 90 mg/kg Q4dx3 iv): 24 days
Survivors not reaching tumor endpoint (NCI-H460 lung tumor [9]; NCI-H460, 90 mg/kg Q4dx3 iv): 0/10
Tumor regression, Complete (NCI-H460 lung tumor [9]; 40 mg/kg Q4dx3 iv): 0/10
Tumor regression, Partial (NCI-H460 lung tumor [9]; 40 mg/kg Q4dx3 iv): 0/10
Tumor regression, Complete (NCI-H460 lung tumor [9]; 90 mg/kg Q4dx3 iv): 0/10
Tumor regression, Partial (NCI-H460 lung tumor [9]; 90 mg/kg Q4dx3 iv): 0/10
maximum body weight loss [10]: ≤ 16%
treatment-related deaths [10]: no treatment-related deaths
TGD (NCI-N87 gastric tumor; NCI-N87, 60 mg/kg Q7dx3 iv): 12 days
Median TTE (NCI-N87 gastric tumor; NCI-N87, 60 mg/kg Q7dx3 iv, endpoint 800 mm3): 30 days
Survivors not reaching tumor endpoint (NCI-N87 gastric tumor; NCI-N87, 60 mg/kg Q7dx3 iv, endpoint 800 mm3 or Day 84): 0/10
Tumor regression, Complete (NCI-N87 gastric tumor; [13]): 0/10
Tumor regression, Partial (NCI-N87 gastric tumor; [13]): 0/10
